The test system of test [1] is LoVo colorectal adenocarcinoma xenografts. The test can be described thus: In vivo anticancer activity, oxaliplatin-sensitive colorectal xenograft. Also noted: species or system BALB/c nu/nu mice. The note with it: LoVo xenograft; daily ip day 14 to day 30; 1 at 3 mg/kg, OXP at 2 mg/kg; tumor volume at day 30. How it is done: (§1) LoVo and LoVo-OXP tumor xenografts were established in 6-week-old BALB/c nu/nu mice by injecting 1×10^7 tumor cells subcutaneously (100 μL in serum free medium) on the left dorsal flank. After 24 h from tumor implantation, mice were randomly divided into five groups (6 animals per group, 8 controls). Chemotherapy was delayed until the tumor became palpable (day 14). From day 14, 1 was dosed daily at 3 mg/kg ip whereas OXP was dosed daily at 2 mg/kg ip. Measurements of body weights and tumor volumes were recorded every 2 days until the experimental endpoint. The long axis (L) and the short axis (S) were measured with caliper, and the tumor volume (V) was calculated using the following equation: V=S×S×L/2. At day 30, animals were sacrificed, and the inhibition of tumor growth was determined by comparing the volume of the control group and the treatment group expressed as % referred to the control animals.
(§2) All the values are the means±S.D. of not less than three measurements. Multiple comparisons were made by Tukey-Kramer test (**p<0.01; *p<0.05).

In test [2] the test system is 2008 ovarian cancer cells. In words: MTT cytotoxicity assay, cross-resistance profile. It is filed as cell-based, human. The note with it: 72 h. Background: Tetrazolium assays rely on reduction of a dye to a coloured formazan, in cell work by metabolically active cells.
Test [3] concerns C13* cisplatin resistant ovarian cancer cells. In words: MTT cytotoxicity assay, cross-resistance profile. The settings on record: for R.F. (resistance factor): IC50 C13* / IC50 2008, cross-resistance with cisplatin. Format: cell-based, human.
Test [4] deals with LoVo-OXP oxaliplatin resistant colon cancer cells. The test can be described thus: MTT cytotoxicity assay, cross-resistance profile. It is filed as cell-based, human. The note with it: for R.F. (resistance factor): IC50 LoVo-OXP / IC50 LoVo, cross-resistance with oxaliplatin.
Test [5] concerns LoVo-OXP colorectal adenocarcinoma xenografts. The test can be described thus: In vivo anticancer activity, oxaliplatin-resistant colorectal xenograft. The arrangement: species or system BALB/c nu/nu mice. As for the experimental part:
as §1, §2

SMILES strings stand for the structures.

On to `O=C1[O][Pt-2]2([NH2+]C3CCCC[C@H]3[NH2+]2)[O]C1=O` (stereo partly drawn) [oxaliplatin, [(1R,2R)-cyclohexane-1,2diamine](ethanedioato)platinum(II), reference compound], for which the tumor growth inhibition in test [1] is listed as 54%; in test [5] (LoVo-OXP xenograft, daily ip day 14 to day 30, 1 at 3 mg/kg, OXP at 2 mg/kg, tumor volume at day 30) it was 24%. The IC50 (in general, the concentration that inhibits the measured activity by half) was determined as 1.65 ± 1.01 µM in test [2]; 3.33 ± 1.84 µM in test [3] (C13*, 72 h, MTT); 17.5 ± 1.79 µM in test [4] (LoVo-OXP, 72 h, MTT). In addition, the “R.F. (resistance factor)” value was 2.0 in test [3], 2 in test [3] (listed as OXP), 17 in test [4] and 17 in test [4] (listed as OXP). The “antitumor activity, times lower than that exerted by 1” value in test [5] (LoVo-OXP models) is listed as 2.4.

The values are drawn from patent publication US9220705B2, “Method of treating colorectal cancer” (priority 2013, dated 2015).
